# Test results taken from patent US20190233884A1 (University of Southern California, priority 2016, published 2019).
# System: patients with refractory metastatic colorectal cancer (mCRC)
# Test: PFS, OS and disease control in the training (evaluation) cohort of refractory mCRC patients receiving TAS-102 (n=52, Japan), by baseline characteristics, SNP genotype and toxicity
# Assay type: in vivo, human
# Conditions: evaluation cohort
# Protocol: All patients underwent the treatment in salvage-line setting. […]
# (§1) Genomic DNA was extracted from peripheral whole blood in patients of all cohorts using the QIAmp Kit (Qiagen, Valencia, Calif., USA) according to the manufacturer's protocol (www.qiagen.com). The candidate SNPs were genotyped using PCR-based direct DNA sequence analysis by ABI 3100A Capillary Genetic Analyzer and Sequencing Scanner v1.0 (Applied Biosystems). Amplification of extracted DNA was carried out using both forward and reverse primers for each gene polymorphism as shown in Table 1. […] The investigators analyzing SNPs were blinded to the clinical data of the study patients.
# The primary endpoint in this study was progression-free survival (PFS), and the secondary endpoints were overall survival (OS) and disease control rate (DCR). PFS was calculated from the date of starting treatment to the first observation of disease progression or death from any cause. If a patient had no disease progression or death, PFS was censored at the date of last follow up. OS was calculated from the date of starting treatment until the date of death from any cause or the date of the last follow-up, at which point OS was censored. The disease control rate (DCR) was defined as the proportion of patients who achieved a stable disease (SD) or […] according to RECISTv1.1. Chi-square test was used to examine the difference in baseline patient characteristics among the three cohorts. Allelic distribution of all SNPs by ethnicity for deviation from Hardy-Weinberg equilibrium and the allelic frequencies of SNPs were tested using the Chi-square tests with one degree of freedom. The associations between candidate SNPs and disease control, and toxicities were examined using contingency tables and Fisher's exact test. The associations of SNPs with PFS and OS were analysed using Kaplan-Meier curves and the log-rank test. Because the true mode of inheritance of candidate SNPs was not established yet, a codominant or dominant genetic model if appropriate was considered.
# All patients underwent the treatment in salvage-line setting. […] In all patients, adverse events were graded according to the Common Terminology Criteria for Adverse Events, version 4.0. […]
# as §1, with “tested” for “genotyped”, “Biosystems).” for “Biosystems). Amplification of extracted DNA was carried out using both forward and reverse primers for each gene polymorphism as shown in Table 1.”, “data.” for “data of the study patients.”
# The primary endpoint in this study was progression-free survival (PFS), and the secondary endpoints were overall survival (OS) and disease control rate (DCR).
# [1] = CHEK2 rs2267130 Any C vs T/T (Ref.), multivariable
# [2] = CHEK2 rs2267130 Any C vs T/T (Ref.), univariate
# [3] = CHEK2 rs2267130 C/C vs T/T (Ref.), multivariable
# [4] = CHEK2 rs2267130 C/C vs T/T (Ref.), univariate
# [5] = CHEK2 rs2267130 T/C vs T/T (Ref.), multivariable
# [6] = CHEK2 rs2267130 T/C vs T/T (Ref.), univariate
# [7] = Che1 rs1564796 T/C and C/C grouped together
# [8] = FANCD2 rs6792811 G/A and G/G grouped together
substance,measurement,setting,value
Trifluridine/tipiracil [TAS-102],"PD, patients n (%)",BRCA1 rs16941 T/C,15 (68%)
same,"Disease Control Rate SD, patients n (%)",BRCA1 rs16941 T/T,7 (37%)
same,"PD, patients n (%)",BRCA1 rs16941 T/T,12 (63%)
same,"Disease Control Rate SD, patients n (%)",BRCA1 rs799917 A/A,1 (20%)
same,"PD, patients n (%)",BRCA1 rs799917 A/A,4 (80%)
same,"Disease Control Rate SD, patients n (%)",BRCA1 rs799917 Any A,8 (30%)
same,"PD, patients n (%)",BRCA1 rs799917 Any A,19 (70%)
same,"Disease Control Rate SD, patients n (%)",BRCA1 rs799917 G/A,7 (32%)
same,"PD, patients n (%)",BRCA1 rs799917 G/A,15 (68%)
same,"Disease Control Rate SD, patients n (%)",BRCA1 rs799917 G/G,7 (37%)
same,"PD, patients n (%)",BRCA1 rs799917 G/G,12 (63%)
same,"Disease Control Rate SD, patients n (%)",BRCA2 rs144848 A/A,8 (29%)
same,"PD, patients n (%)",BRCA2 rs144848 A/A,20 (71%)
same,"Disease Control Rate SD, patients n (%)",BRCA2 rs144848 A/C,6 (46%)
same,"PD, patients n (%)",BRCA2 rs144848 A/C,7 (54%)
same,"Disease Control Rate SD, patients n (%)",BRCA2 rs144848 Any C,7 (39%)
same,"PD, patients n (%)",BRCA2 rs144848 Any C,11 (61%)
same,"Disease Control Rate SD, patients n (%)",BRCA2 rs144848 C/C,1 (20%)
same,"PD, patients n (%)",BRCA2 rs144848 C/C,4 (80%)
same,"Disease Control CR/PR/SD, patients n (%)",CHEK2 rs2267130 Any C,12 (46%)
same,Median OS (95% CI),CHEK2 rs2267130 Any C,"8.3 (5.7, 15.6+) months"
same,Median PFS (95% CI),CHEK2 rs2267130 Any C,"3.4 (2.1, 4.6) months"
same,"PD, patients n (%)",CHEK2 rs2267130 Any C,14 (54%)
same,HR OS (95% CI),[1],"0.71 (0.29, 1.77)"
same,HR PFS (95% CI),[1],"0.49 (0.26, 0.94)"
same,HR OS (95% CI),[2],"0.71 (0.29, 1.74)"
same,HR PFS (95% CI),[2],"0.48 (0.25, 0.90)"
same,"Disease Control CR/PR/SD, patients n (%)",CHEK2 rs2267130 C/C,3 (43%)
same,Median OS (95% CI),CHEK2 rs2267130 C/C,"5.7 (1.4, 10.7+) months"
same,Median PFS (95% CI),CHEK2 rs2267130 C/C,"2.7 (0.9, 4.6+) months"
same,"PD, patients n (%)",CHEK2 rs2267130 C/C,4 (57%)
same,HR OS (95% CI),[3],"1.31 (0.39, 4.42)"
same,HR PFS (95% CI),[3],"0.59 (0.23, 1.51)"
same,HR OS (95% CI),[4],"1.21 (0.37, 3.99)"
same,HR PFS (95% CI),[4],"0.62 (0.25, 1.58)"
same,"Disease Control CR/PR/SD, patients n (%)",CHEK2 rs2267130 T/C,9 (47%)
same,Median OS (95% CI),CHEK2 rs2267130 T/C,"12.4 (6.3, 15.6+) months"
same,Median PFS (95% CI),CHEK2 rs2267130 T/C,"3.7 (2.1, 5.2) months"
same,"PD, patients n (%)",CHEK2 rs2267130 T/C,10 (53%)
same,HR OS (95% CI),[5],"0.56 (0.20, 1.55)"
same,HR PFS (95% CI),[5],"0.46 (0.22, 0.94)"
same,HR OS (95% CI),[6],"0.59 (0.22, 1.60)"
same,HR PFS (95% CI),[6],"0.44 (0.22, 0.89)"
same,"Disease Control CR/PR/SD, patients n (%)",CHEK2 rs2267130 T/T,3 (15%)
same,Median OS (95% CI),CHEK2 rs2267130 T/T,"8.1 (4.4, 8.7+) months"
same,Median PFS (95% CI),CHEK2 rs2267130 T/T,"2.1 (1.6, 2.9) months"
same,"PD, patients n (%)",CHEK2 rs2267130 T/T,17 (85%)
same,PFS,CHEK2 rs2267130 T/T,2.1 months
same,"Disease Control Rate SD, patients n (%)",CHEK2 rs22236142 Any C,7 (27%)
same,"PD, patients n (%)",CHEK2 rs22236142 Any C,19 (73%)
same,"Disease Control Rate SD, patients n (%)",CHEK2 rs22236142 C/C,2 (25%)
same,"PD, patients n (%)",CHEK2 rs22236142 C/C,6 (75%)
same,"Disease Control Rate SD, patients n (%)",CHEK2 rs22236142 G/C,5 (28%)
same,"PD, patients n (%)",CHEK2 rs22236142 G/C,13 (72%)
same,"Disease Control Rate SD, patients n (%)",CHEK2 rs22236142 G/G,8 (40%)
same,"PD, patients n (%)",CHEK2 rs22236142 G/G,12 (60%)
same,"Disease Control Rate SD, patients n (%)",Che1 rs1045056 T/C,2 (22%)
same,"PD, patients n (%)",Che1 rs1045056 T/C,7 (78%)
same,"Disease Control Rate SD, patients n (%)",Che1 rs1045056 T/T,13 (35%)
same,"PD, patients n (%)",Che1 rs1045056 T/T,24 (65%)
same,"Disease Control Rate SD, patients n (%)",[7],3 (25%)
same,"PD, patients n (%)",[7],8 (67%)
same,"Disease Control Rate SD, patients n (%)",Che1 rs1564796 T/T,12 (34%)
same,"PD, patients n (%)",Che1 rs1564796 T/T,23 (66%)
same,"Disease Control Rate SD, patients n (%)",FANCD2 rs2272125 T/G,3 (50%)
same,"PD, patients n (%)",FANCD2 rs2272125 T/G,3 (50%)
same,"Disease Control Rate SD, patients n (%)",FANCD2 rs2272125 T/T,12 (30%)
same,"PD, patients n (%)",FANCD2 rs2272125 T/T,28 (70%)
same,"Disease Control Rate SD, patients n (%)",FANCD2 rs6792811 A/A,10 (33%)
same,"PD, patients n (%)",FANCD2 rs6792811 A/A,20 (67%)
same,"Disease Control Rate SD, patients n (%)",[8],5 (29%)
same,"PD, patients n (%)",[8],11 (71%)
same,"Disease Control Rate SD, patients n (%)",PCNA rs25406 A/A,4 (36%)
same,"PD, patients n (%)",PCNA rs25406 A/A,7 (64%)
same,"Disease Control Rate SD, patients n (%)",PCNA rs25406 Any A,12 (44%)
same,"PD, patients n (%)",PCNA rs25406 Any A,15 (56%)
same,"Disease Control Rate SD, patients n (%)",PCNA rs25406 G/A,8 (50%)
same,"PD, patients n (%)",PCNA rs25406 G/A,8 (50%)
same,"Disease Control Rate SD, patients n (%)",PCNA rs25406 G/G,3 (19%)
same,"PD, patients n (%)",PCNA rs25406 G/G,13 (81%)
same,"Disease Control Rate SD, patients n (%)",Pin1 rs2233678 G/C,0%
same,"PD, patients n (%)",Pin1 rs2233678 G/C,2 (100%)
same,"Disease Control Rate SD, patients n (%)",Pin1 rs2233678 G/G,15 (34%)
same,"PD, patients n (%)",Pin1 rs2233678 G/G,29 (66%)
same,"Disease Control Rate SD, patients n (%)",Pin1 rs2233679 Any T,11 (38%)
same,"PD, patients n (%)",Pin1 rs2233679 Any T,18 (62%)
same,"Disease Control Rate SD, patients n (%)",Pin1 rs2233679 C/C,4 (24%)
same,"PD, patients n (%)",Pin1 rs2233679 C/C,13 (76%)
same,"Disease Control Rate SD, patients n (%)",Pin1 rs2233679 C/T,8 (36%)
same,"PD, patients n (%)",Pin1 rs2233679 C/T,14 (64%)
same,"Disease Control Rate SD, patients n (%)",Pin1 rs2233679 T/T,3 (43%)
